{
  "source": "paper PMC4448982",
  "about": "“LP-925219 maximizes urinary glucose excretion in mice by inhibiting both renal SGLT1 and SGLT2” (Pharmacology Research & Perspectives, 2015)",
  "key": {"dog SGLT1": {"molecular_target": "T1, dog SGLT1 (Canis lupus familiaris, UniProt A0A8I3PYH5)", "T1 sequence (A0A8I3PYH5 1-662)": "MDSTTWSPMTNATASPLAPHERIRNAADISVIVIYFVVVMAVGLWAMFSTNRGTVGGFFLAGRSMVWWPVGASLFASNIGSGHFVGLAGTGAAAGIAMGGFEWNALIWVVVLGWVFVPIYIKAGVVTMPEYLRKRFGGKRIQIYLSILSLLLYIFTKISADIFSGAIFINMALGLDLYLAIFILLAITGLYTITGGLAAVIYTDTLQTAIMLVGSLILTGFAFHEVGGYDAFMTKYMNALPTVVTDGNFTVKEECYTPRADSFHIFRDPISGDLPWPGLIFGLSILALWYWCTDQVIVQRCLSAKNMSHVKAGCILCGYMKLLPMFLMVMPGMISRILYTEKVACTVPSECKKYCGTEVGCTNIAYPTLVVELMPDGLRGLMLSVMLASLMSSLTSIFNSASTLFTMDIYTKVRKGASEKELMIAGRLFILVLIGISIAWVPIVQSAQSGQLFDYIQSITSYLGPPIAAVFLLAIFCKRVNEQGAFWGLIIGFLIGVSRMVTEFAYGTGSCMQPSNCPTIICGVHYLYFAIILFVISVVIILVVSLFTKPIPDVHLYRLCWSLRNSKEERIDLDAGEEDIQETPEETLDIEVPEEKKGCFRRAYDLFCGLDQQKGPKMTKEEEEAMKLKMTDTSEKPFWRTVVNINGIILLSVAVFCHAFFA", "assay": "14C-AMG uptake assay, cells expressing dog SGLT1", "assay_type": "cell-based", "settings": "mean ± SD", "excerpt": "(§1) Methods for generating cell lines expressing mouse, rat, and dog SGLT1 and SGLT2 are published (Powell et al. [2013b], [2014]). Full-length coding sequence of human SGLT1 (NP_000334) and human SGLT2 (NP_003032.1) with an HA-tag at the N-terminus were cloned into the mammalian expression vector pIRESpuro2 (Clontech, Mountain View, CA). HEK293 cells (ATCC, Manassas, VA) were transfected with the pIRESpuro2 vector containing human SGLT1 or SGLT2 and bulk stable cell lines were selected in the presence of 0.5 μg/mL of puromycin.\n(§2) Cell lines expressing SGLT1 or SGLT2 were plated into poly-D-lysine-coated 384-well plates, and culture overnight in cell growth medium. Cells were washed, and then incubated in uptake buffer ([…], […] KCl, […] CaCl2, […] MgCl2, […] HEPES/Tris, 1 mg/mL of bovine serum albumin, pH7.4) containing [^14C]α-methylglucopyranoside (^14C-AMG), a nonmetabolizable glucose analog specific for sodium-dependent glucose transporters (Wright and Turk [2004]). The inhibition of SGLT1 or SGLT2 was determined by measuring SGLT1/2-mediated ^14C-AMG uptake in the presence of increasing compound concentrations of LP-925219. […] Standard sigmoidal dose–response model curves were fitted, and the IC50 value was computed as the LP-925219 concentration that inhibited the ^14C-AMG uptake by 50% between baseline and maximum uptake."}, "human SGLT1": {"molecular_target": "T2, human SGLT1 (Homo sapiens, UniProt P13866)", "T2 sequence (P13866 1-664)": "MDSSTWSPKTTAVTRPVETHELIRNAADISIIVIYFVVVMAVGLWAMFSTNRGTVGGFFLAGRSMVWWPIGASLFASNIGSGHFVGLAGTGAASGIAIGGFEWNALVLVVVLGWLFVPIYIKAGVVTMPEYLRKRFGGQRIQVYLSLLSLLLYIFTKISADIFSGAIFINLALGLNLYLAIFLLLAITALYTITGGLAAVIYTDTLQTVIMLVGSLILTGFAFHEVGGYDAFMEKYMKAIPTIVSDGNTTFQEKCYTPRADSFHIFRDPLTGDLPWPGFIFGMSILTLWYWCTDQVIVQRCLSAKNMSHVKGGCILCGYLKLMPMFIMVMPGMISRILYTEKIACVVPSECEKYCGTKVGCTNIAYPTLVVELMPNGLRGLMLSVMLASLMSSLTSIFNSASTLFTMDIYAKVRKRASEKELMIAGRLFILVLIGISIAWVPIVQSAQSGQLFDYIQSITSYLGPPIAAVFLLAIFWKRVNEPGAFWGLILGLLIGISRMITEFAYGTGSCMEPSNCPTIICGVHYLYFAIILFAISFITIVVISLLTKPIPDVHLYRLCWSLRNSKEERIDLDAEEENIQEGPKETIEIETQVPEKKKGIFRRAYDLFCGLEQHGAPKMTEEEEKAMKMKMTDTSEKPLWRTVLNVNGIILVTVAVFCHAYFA", "assay": "Compound washout study, cells expressing human SGLT1", "quoted_text": "Cells expressing human SGLT2 were studied using the above protocol. […] Cells expressing human SGLT2 were studied using the above protocol."}, "mouse SGLT1": {"molecular_target": "T3, mouse SGLT1 (Mus musculus, UniProt Q8C3K6)", "T3 construct": "expressed in transfected cells; host or cells: HEK293 (per abstract)", "T3 sequence (Q8C3K6 1-665)": "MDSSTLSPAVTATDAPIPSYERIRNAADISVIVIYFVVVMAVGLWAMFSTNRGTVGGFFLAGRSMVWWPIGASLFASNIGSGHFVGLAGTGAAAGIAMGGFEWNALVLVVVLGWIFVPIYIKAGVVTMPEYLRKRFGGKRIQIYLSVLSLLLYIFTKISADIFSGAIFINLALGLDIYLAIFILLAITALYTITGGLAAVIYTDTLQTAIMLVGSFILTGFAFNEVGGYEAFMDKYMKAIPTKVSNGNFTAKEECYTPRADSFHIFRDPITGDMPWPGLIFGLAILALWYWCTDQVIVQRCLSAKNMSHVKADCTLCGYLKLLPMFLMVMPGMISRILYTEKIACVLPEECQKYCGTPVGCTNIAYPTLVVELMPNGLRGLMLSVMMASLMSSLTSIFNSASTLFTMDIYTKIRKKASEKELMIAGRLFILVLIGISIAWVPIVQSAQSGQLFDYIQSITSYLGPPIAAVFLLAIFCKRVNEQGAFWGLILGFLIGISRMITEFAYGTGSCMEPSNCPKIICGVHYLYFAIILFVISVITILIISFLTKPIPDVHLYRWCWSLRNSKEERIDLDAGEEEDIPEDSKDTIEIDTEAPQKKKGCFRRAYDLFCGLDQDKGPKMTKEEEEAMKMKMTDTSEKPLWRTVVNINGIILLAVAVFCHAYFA", "assay": "14C-AMG uptake assay, HEK293 cells expressing mouse SGLT1", "assay_type": "cell-based", "settings": "mean ± SD", "excerpt": "as §1, §2"}},
  "data": [
    {"smiles": "COc1ccc(Cc2cc([C@@H]3O[C@H](SC)[C@@H](O)[C@H](O)[C@H]3O)ccc2Cl)cc1", "note": "[LP-925219]", "values": [
      {"measurement": "IC50", "setting": "dog SGLT1", "result": "30.2 ± 2", "unit": "nM"},
      {"measurement": "IC50", "setting": "human SGLT1; no wash protocol", "result": 13, "unit": "nM"},
      {"measurement": "IC50", "setting": "human SGLT1; washout protocol, 18-20 h recovery after 30 min treatment", "result": 1310, "unit": "nM"},
      {"measurement": "IC50", "setting": "mouse SGLT1", "result": "22.6 ± 1", "unit": "nM"}
    ]}
  ]
}
